Experimental data published in patent publication US20250160330A1, “METHOD FOR CONTROLLING HARMFUL ARTHROPODS OR HARMFUL NEMATODES USING ZOANTHAMINE ANALOG” (SUMITOMO CHEMICAL COMPANY, LIMITED, priority 2022, published 2025).
Read-outs that look alike come from different tables or passages of the source.

Legend:
[1] = test system: silverleaf whiteflies (Bemisia tabaci); assay: Test method 6: foliar spray on tomato seedling with silverleaf whitefly larvae; conditions: in Solanum lycopersicum, 168 h, read-out: mortality of insects
[2] = test system: cotton aphids (Aphis gossypii); assay: Test method 3: foliar spray on cucumber seedling infested with cotton aphids; conditions: read-out: mortality of insects
[3] = test system: northern house mosquitos (Culex pipiens pipiens); assay: Test method 8: coated container contact test, northern house mosquito female adults; type: in vivo; conditions: 24 h, read-out: mortality of insects
Method: The test compounds are dissolved with acetone containing a surfactant, and the solution was then poured into a container of 20 mL contents, and the solution was coating uniformly in the inner face of the container such that the test compound is made 10 mg/m^2, and the surfactant is made 40 mg/m^2, and the container is dried.
Five (5) of female adult of northern house mosquitos (Culex pipiens pipiens) are placed in the contained, and the contained is put the lid. After the passing of the prescribed times, the state of the northern house mosquitos are examined, and the mortality is calculated by the following equation.

[4] = test system: western flower thrips (Frankliniella occidentalis); assay: Test method 5: sprayed cucumber leaf, western flower thrips larvae; type: in vivo; conditions: 144 h, read-out: mortality of insects
Method: (§1) Test compounds are made to a formulation according to a similar method to that described in the Formulation Example 5, and thereto is added water containing 0.03 v/v % of Shindain (registered trademark) to prepare a diluted solution containing a prescribed concentration of the test compound.
Cucumber (Cucumber sativus) seedling (on the developmental stage of the second true leaf) is planted in a cup, and the diluted solutions are sprayed into the seedling at a ratio of 10 mL/seedling. Thereafter, the second true leaf is cut, and the cut leaf was placed in the cup, and approximately twenty (20) of larvae of western flower thrips (Frankliniella occidentalis) larvae are released onto the leaf. After 6 days, the number of the surviving insects is examined and the mortality of insects is calculated by the following equation.

[5] = test system: brown planthoppers (Nilaparvata lugens); assay: Test method 4: foliar spray on rice seedling, brown planthopper larvae; type: in vivo; conditions: 144 h, read-out: mortality of insects
Method: as §1
Rice (Oryza sativa) seedling (on the developmental stage of the second true leaf) is planted in a cup, and the diluted solutions are sprayed into the seedling at a ratio of 10 mL/seedling. Thereafter, twenty (20) of 3rd instar larvae of brown planthoppers (Nilaparvata lugens) are released onto the rice leaves. After 6 days, the number of the surviving insects is examined and the mortality of insects is calculated by the following equation.

[6] = test system: cotton worm (Spodoptera litura); assay: Test method 1: foliar spray on cabbage seedling, cotton worm larvae; type: in vivo; conditions: 144 h, read-out: mortality of insects
Method: The test compounds are made to a formulation according to a similar method to that described in the Formulation Example 5, and thereto is added water containing 0.03 v/v % of Shindain (registered trademark) to prepare a diluted solution containing a prescribed concentration of the test compound.
(§2) Cabbage (Brassicae oleracea) seedling (on the developmental stage of the third to fourth true leaf) is planted in a cup, and the diluted solutions are sprayed into the seedling at a ratio of 20 mL/seedling. Thereafter, ten (10) cotton worm (Spodoptera litura) at the third instar larval stage are released. After 6 days, the number of the surviving insects is counted, and the mortality of insects is calculated by the following equation.

[7] = test system: cotton worm (Spodoptera litura); assay: Test method 2: foliar spray on cabbage seedling, cotton worm larvae; type: in vivo; conditions: 144 h, read-out: mortality of insects
Method: as §1, §2

[8] = 10 mg/m^2 coated on inner face of container, female adults, after one (1) day, 25° C.
[9] = 200 ppm, spray 10 mL/seedling on cucumber, cut second true leaf, larvae, after 6 days, 25° C.
[10] = 200 ppm, spray 10 mL/seedling on rice, 3rd instar larvae, after 6 days, 25° C.
[11] = 200 ppm, spray 20 mL/seedling on cabbage, third instar larvae, after 6 days, 25° C.
[12] = 200 ppm, spray 20 mL/seedling on cabbage, third instar larvae, after 6 days, 25° C. (test method 2)

Structure (SMILES)	mortality at 200 ppm [1] [%]	mortality at 200 ppm [2] [%]	mortality at 10 mg/m2 [3, 8] [%]	mortality at 200 ppm [4, 9] [%]	mortality at 200 ppm [5] [%]	mortality at 200 ppm [6] [%]	mortality at 200 ppm [7] [%]	mortality at 10 mg/m2 [3] [%]	mortality at 200 ppm [4] [%]	mortality at 200 ppm [5, 10] [%]	mortality at 200 ppm [6, 11] [%]	mortality at 200 ppm [7, 12] [%]
COC(=O)C[C@@]1(C)[C@H]2C(=O)CC3C(=O)CC(C)CC3[C@]2(C)C=C2N3C[C@H]4C[C@H](C)C[C@]3(CC[C@]21C)O4 (stereo partly drawn) [EE-1]	≥ 90	≥ 90	≥ 80	≥ 90								
CC1=CC(=O)[C@@H]2[C@@H](C1)[C@@]1(C)[C@H](C(=O)[C@@H]2C)[C@]2(C)CC(=O)O[C@@]3([C@H]1Cl)N1C[C@H]4C[C@H](C)C[C@]1(CC[C@@]23C)O4 [AA-2]	≥ 90	≥ 90			≥ 90	≥ 80	≥ 80	≥ 80	≥ 90			
CC1=CC(=O)[C@@H]2[C@@H](C1)[C@]1(C)C[C@H]3N4C[C@H]5C[C@H](C)C[C@]4(CC[C@@]3(C)[C@@](C)(CC(=O)O)[C@H]1C(=O)[C@@H]2C)O5 [EE-3]		≥ 90	≥ 80	≥ 90						≥ 90	≥ 80	
CC1=CC(=O)[C@@H]2[C@@H](C1)[C@]1(C)CC3N4C[C@H](O)C[C@H](C)C[C@@H]4CC[C@@]3(C)[C@@](C)(CC(=O)O)[C@H]1C(=O)[C@@H]2C (stereo partly drawn) [GG-3]		≥ 90			≥ 90	≥ 80		≥ 80	≥ 90			
COC(=O)C[C@@]1(C)[C@H]2C(=O)[C@H](C)[C@@H]3C(=O)C=C(C)C[C@H]3[C@]2(C)C[C@H]2N3C[C@H]4C[C@H](C)C[C@]3(CC[C@]21C)O4 [EE-5]		≥ 90			≥ 90	≥ 80	≥ 80	≥ 80	≥ 90			
COC(=O)C[C@@]1(C)[C@H]2C(=O)C[C@@H]3C(=O)C=C(C)C[C@H]3[C@]2(C)C=C2N3C[C@H]4C[C@H](C)C[C@]3(CC[C@]21C)O4 [E-1]	≥ 90	≥ 90			≥ 90		≥ 80	≥ 80	≥ 90			
CC1CC(O)C2CC(=O)[C@H]3[C@@](C)(CC4N5C[C@H]6C[C@H](C)C[C@]5(CC[C@@]4(C)[C@@]3(C)CC(=O)O)O6)C2C1 (stereo partly drawn) [EE-6]			≥ 80	≥ 90								≥ 80
COC(=O)C[C@@]1(C)[C@H]2C(=O)C[C@@H]3C(=O)CC(C)C[C@H]3[C@]2(C)CC2N3C[C@H](O)C[C@H](C)CC3CC[C@]21C (stereo partly drawn) [GG-2]								≥ 80				
CC1CC(=O)C2CC(=O)[C@H]3[C@@](C)(CC4=[N+]5C[C@H]6C[C@H](C)C[C@]5(CC[C@@]4(C)[C@@]3(C)CC(=O)O)O6)C2C1 (stereo partly drawn) [EE-2]	≥ 90	≥ 90			≥ 90	≥ 80	≥ 80	≥ 80	≥ 90			
Cc1cc(O)c2c(c1)[C@]1(C)C[C@@]34OC(=O)C[C@@](C)([C@H]1C(=O)[C@@H]2C)[C@]3(C)CC[C@@]12C[C@@H](C)C[C@H](CN14)O2 [B-1]		≥ 90				≥ 80	≥ 80	≥ 80	≥ 90			
CC1=CC(=O)[C@@H]2[C@@H](C1)[C@]1(C)C[C@@]34OC(=O)C[C@@](C)([C@H]1C(=O)[C@@H]2CO)[C@]3(C)CCC12C[C@@H](C)C[C@H](CN14)O2 [A-1]	≥ 90	≥ 90			≥ 90	≥ 80	≥ 80					
CC(=O)Oc1cc(C)cc2c1CC(=O)[C@H]1[C@@]2(C)C[C@@]23OC(=O)C[C@]1(C)[C@]2(C)CC[C@]12C[C@@H](C)C[C@H](CN13)O2 [BB-1]		≥ 90	≥ 80	≥ 90							≥ 80	≥ 80
CC1CC(=O)[C@@H]2[C@@H](C1)[C@]1(C)C[C@@]34OC(=O)C[C@@](C)([C@H]1C(=O)[C@@H]2C)[C@]3(C)CC[C@]12C[C@@H](C)C[C@H](CN14)O2 (stereo partly drawn) [A-19]		≥ 90			≥ 90	≥ 80	≥ 80	≥ 80	≥ 90			
Cc1cc(O)c2c(c1)[C@]1(C)C[C@@]34OC(=O)C[C@@](C)([C@H]1C(=O)C2)[C@]3(C)CC[C@]12C[C@@H](C)C[C@H](CN14)O2 [B-2]		≥ 90			≥ 90	≥ 80	≥ 80	≥ 80				
CC[C@H]1C(=O)[C@H]2[C@@](C)(C[C@@]34OC(=O)C[C@]2(C)[C@]3(C)CC[C@]23C[C@@H](C)C[C@H](CN24)O3)[C@@H]2CC(C)=CC(=O)[C@H]21 [AA-3]	≥ 90	≥ 90			≥ 90	≥ 80	≥ 80	≥ 80				
CC1CC(O)[C@H]2CC(=O)[C@H]3[C@@](C)(CC4N5C[C@H](O)C[C@H](C)CC5CC[C@@]4(C)[C@@]3(C)CC(=O)O)[C@@H]2C1 (stereo partly drawn) [GG-1]					≥ 90			≥ 80				
COC(=O)C[C@@]1(C)[C@H]2C(=O)[C@H](C)[C@@H]3C(=O)C=C(C)C[C@H]3[C@]2(C)C=C2N3C[C@H]4C[C@H](C)C[C@]3(CC[C@]21C)O4 [EE-4]			≥ 80	≥ 90						≥ 90		≥ 80
C[C@@H]1CC(=O)[C@H]2CC(=O)[C@H]3[C@@](C)(C[C@@]45OC(=O)C[C@]3(C)[C@]4(C)CC[C@]34C[C@@H](C)C[C@H](CN35)O4)[C@@H]2C1 [A-18]		≥ 90			≥ 90	≥ 80	≥ 80		≥ 90			
